Laboratory results reported in a melting point compilation (Tetko et al.; mined from patent text by program, amines drawn as free bases though some values may be those of a salt).

melting point [°C]	Compound
130 to 133	COC(=O)c1ccccc1CN1CCN(c2nc(C)c(C(=O)NCc3ccccc3)s2)C1=O
84 to 86	C=CCc1cccc2c(=O)cc(-c3c(F)cccc3F)oc12
132 to 135	CCOC(=O)C1=C(C=O)Nc2ccnc(OC(C)C)c2C1c1ccccc1 (stereo not drawn)
295 to 297	CC(=O)Cc1ccc2c(c1)-c1[nH]c3ccc(C(F)(F)F)cc3c1CC(=O)N2
206 to 208	CCCc1c(S)ccc2c(=O)cc(C(=O)O)oc12
170 to 171	CCOc1nc(=O)n(C(C)C)c(=O)[nH]1
92.7 to 93	CC(=O)SCC(C(=O)N1CCC(=C2c3ccc(Cl)cc3CCc3cccnc32)CC1)c1ccccc1 (stereo not drawn)
229	Cc1cn(-c2nc(C3=Nc4ccc(-c5ccccc5F)cc4NC(=O)C3)cs2)cn1
160 to 162	Cc1cc(C2=CC(c3cc(Cl)cc(Cl)c3)(C(F)(F)F)OC2)ccc1C(=O)OC(C)(C)C (stereo not drawn)
5	CCCN(c1ccncc1F)n1c(C)cc2ccccc21
83 to 85	O=C(C=C1CCN(Cc2ccc(F)cc2)CC1)NCc1ccc(F)c(F)c1
153 to 155	Cc1cccc(-c2nc(N)sc2-c2ccc(F)c(-c3cnn(C)c3)c2)n1
110 to 112	CCCCOc1ccc(NC(=O)c2ccccc2C(c2ccc(O)cc2)c2ccc(O)cc2)cc1
196 to 197	CC(=O)OC1C(NC(=O)Cc2cccc3c2Cc2ccccc2-3)C(CO)OC1n1cnc2c(Cl)ncnc21 (stereo not drawn)
179 to 180	O=C(NCCCCCCNC(=O)c1ccc(OC(F)(F)F)cc1)c1ccc(OC(F)(F)F)cc1
122 to 124	NC(=O)C1=CCCNC1
168 to 170	COc1ccc(-c2c(C(N)=O)c3n(c2Cl)CCN(C(=O)NC(C)(C)C)C3)cc1
140 to 142	O=C1CCN(CC(c2ccccc2)c2ccccc2)CC1
164 to 166	CC1(C)OC(c2ccc(S(C)(=O)=O)cc2)=C(c2cccnc2)C1=O
213 to 216	CCOC(=O)C1=C(C)NC(c2cscn2)=NC1c1ccc(O)cc1 (stereo not drawn)
105 to 112	Cc1nnsc1C(=O)Nc1ccc(-n2nc(C(F)(F)F)cc2C2CC2)c(F)c1
174 to 176	Nc1nc(NCc2ccccc2)c2ncn(C3C=CC(CO)C3)c2n1 (stereo not drawn)
113 to 117	CC(C)(C)OC(=O)NCc1ccc(-c2ccc(O)c(Br)c2)cc1

melting point [°C]	Compound
35 to 36.2	c1c2c(cc3c1CCC3)CCC2
166 to 168	O=C1NOc2cccc3nc4c(c(c23)C1Cc1ccccc1)CCCC4 (stereo not drawn)
124 to 126	CCCCCCCc1ccc(C(=O)c2cccc(C(=O)O)c2)cc1
28 to 30	C=C(CCCO)c1ccc(C(=O)OC)cc1
191 to 193	OCc1cccc(-c2ccc3nnn(Cc4ccc5ncccc5c4)c3n2)c1
168 to 170	CC(C)(S)CN1C(=O)NC(=O)C1=O
174	Fc1ccc(Cn2c(NC3CCN(CCSc4nc5ccccc5o4)CC3)nc3ccccc32)cc1
100 to 107	C[C@@H](n1cnc2cc(NCc3ccccc3)ccc2c1=O)[C@](O)(Cn1cncn1)c1ccc(F)cc1F
193 to 194	CN1CCN(c2ccccc2C=C2NC(=O)N(c3ccc(Cl)cc3)C2=O)CC1
190 to 192	COc1cc(C2=NN(c3ccccc3)C(=O)C2)cc([N+](=O)[O-])c1OC
185 to 187	CCOC(=O)c1ccc(NC(=O)Cn2ccnc2)cc1
158 to 159	COC(=O)C(=C\c1ccc(OC2CCCC2)c(OC)c1)/C(=C\c1ccccc1)C(N)=O
116 to 126	CC1(C)Oc2ccc(-c3nnnn3CCCC(=O)O)cc2[C@@H](Oc2ccc(O)nn2)[C@]1(C)O
93.7	CCC[C@H]1CC[C@H]([C@H]2CC[C@H](c3cc(F)c(C[C@H](C)c4ccccc4)c(F)c3)CC2)CC1
192 to 193	CN1CCN(c2ccc(-c3cnc4c(c3)N(Cc3cc(F)ccc3F)CCN4)cn2)CC1
204 to 208	Cc1cccc2c1ncn2Cc1oc2ccccc2c(=O)c1-c1ccccc1
118	CCCC(=O)Nc1cc(Oc2ccccc2)ccc1NC(=NC(=O)OCC)SC
62	CCOC(=O)CCCCCn1c(C(=O)O)cc2ccccc21
71	O=Cc1ccc(OCc2ccccc2F)c(Cc2ccccc2F)c1
141	COc1ncccc1-c1ncc(OC2SCC(O)C(O)C2O)cc1F (stereo not drawn)
185 to 187	Cc1nc(N2CCN(Cc3ccc(F)cc3)C2=O)sc1C(=O)NCc1cnccn1
166 to 168	CC(c1cc2ncnc(Cl)c2[nH]1)c1oc2ccccc2c(=O)c1-c1cccc(F)c1 (stereo not drawn)
37 to 38	O=C1CCCN1Cc1ccc(F)cc1

melting point [°C]	Compound
75 to 77	CCOC(=O)c1ccc(OCCCCCCCCCCCCCOc2ccc(Cl)cc2)cc1
98.3 to 98.5	COC(=O)c1ccc(S(C)(=O)=O)cc1N
162 to 166	CN(C)N=Nc1cc(-c2ccccc2)sc1C(=O)O
185 to 187	Cc1ccc(-c2ccc3c(c2)C=C(C(=O)Nc2ccc(CN4CCN(CCO)CC4)cc2)CC3)cc1
207 to 208	N#Cc1ccc2cc(OCCC(c3ccccc3)(c3ccccc3)c3ccccc3)ccc2c1
162	CN(C)CCNS(=O)(=O)c1cc(NC(=O)c2cnn3c(C(F)F)cc(-c4ccc(C(F)(F)F)cc4)nc23)c(Cl)s1
80 to 83	CC1(CC(=O)O)CCc2ccc3ccccc3c2C1=O (stereo not drawn)
110 to 113	CCCCCCCCSc1nc2ccccc2[nH]1
294 to 296	O=C(O)COc1ccc(C(=O)CN2CCN(c3ccncc3)CC2)cc1
68 to 75	COC(=O)C(C)(C)COc1ccc(CNC(=O)C2Cc3ccccc3N2S(=O)(=O)c2ccc(-c3ccccc3C(F)(F)F)cc2)cc1 (stereo not drawn)
85 to 90	CN(C(=O)OC(C)(C)C)c1cc(Oc2ccc(C34CC5CC(CC(C5)C3)C4)cc2)ccc1N
80	CC(=O)N(O)Cc1cccc([N+](=O)[O-])c1
158	OCC1(CO)Nc2cccc3cccc(c23)N1
200 to 201	CCCCc1nc(C(C)O)c(C#N)n1Cc1ccc(-c2ccccc2C(=O)O)cc1 (stereo not drawn)
152 to 154	N#Cc1cc([N+](=O)[O-])ccc1Oc1c(F)c(F)cc(F)c1F
74 to 76	CC(=O)OCc1ccc(OCC(OC(C)=O)c2cc3cc(C(C)C)ccc3o2)cc1 (stereo not drawn)
209 to 210	Cc1cc(NC(=O)C2=C(O)c3ccsc3S(=O)(=O)C2)no1
194 to 240	O=C(O)COc1c(Br)cc(-c2c3ccccc3c(Br)c3oc4ccccc4c23)c(O)c1Br
191 to 192	COc1cc2c(cc1OC)CN(NC1=NCCN1)C2
141 to 142	CC(C)(C)c1cc(Cc2cc(C(C)(C)C)cc(C(C)(C)C)c2O)c(O)c(C(C)(C)C)c1
190 to 191	CS(=O)c1ccccc1C1CCCC2(C1)C(=O)Nc1ccccc12 (stereo not drawn)
207 to 208	CS(=O)(=O)c1ccc(-c2cn(-c3ccccc3)nc2C(=O)O)cc1
222 to 223	CCCCc1nc2c(N)nc3ccc(OCC(=O)N4CCCCC4)cc3c2n1C

melting point [°C]	Compound
79 to 81.5	CCc1ccccc1NC(=O)C(C#N)=C(C)N(C)C
117	Cc1cccc(-c2nc3ccccc3n2Cc2ccccc2Cl)c1
178 to 180	CC(C)C1OC(=Nc2ccccn2)c2c1nc1c(C(F)(F)F)cccc1c2O (stereo not drawn)
222 to 224	Cc1cc(C2=CCN(S(=O)(=O)C(C)(C)C(=O)O)CC2)ccc1-c1cnc2ccccc2c1
63 to 64	CC1OC(C)(C)c2cc(-c3ccc(C#N)n3C)ccc2N1C(=O)OCC1c2ccccc2-c2ccccc21 (stereo not drawn)
218 to 222	NC(=O)Cc1ccccc1CSc1nc2ccccc2[nH]1
154 to 156	COc1ccc(-c2nc(S(=O)(=O)c3ccc(C)cc3)n(Cc3ccccc3)c2-c2ccc(OC)cc2)cc1
236 to 237	CN1c2ccccc2Sc2cn(C)c(=O)c(C#N)c21
216 to 220	O=C(O)CCCc1ccc2c(NC(=O)CC3CCCCC3)c(Cl)ccc2n1
55.5 to 56.7	CCCOc1ccc(C(=O)CC(=O)C(C)(C)C)cc1OC
180	Cc1cc(C)c2nc(C3CC3)n(-c3ccc(C(C(=O)O)C4CCCC4)cc3)c2n1 (stereo not drawn)
152 to 154	O=C1Nc2ccccc2N(C(=O)N2CCCC(CCN3CCCCCC3)C2)c2ncccc21 (stereo not drawn)
75 to 77	CC1CN(c2ccc(N3CC(CNc4nccs4)OC3=O)cc2F)CCC1=CC#N (stereo not drawn)
151 to 152	COc1cc(C(C)C)c2c(c1)S(=O)(=O)N(CCl)C2=O
154	O=C1CC(Br)C(=O)N1c1ccc(F)cc1 (stereo not drawn)
85 to 86	CCCCCCCCCC/C=C/c1ccccc1/C=C/C(=O)O
289 to 291	COCCCNC(=O)C1CCN(C(=O)c2[nH]c(C)c(-c3nc4ccc(C(=O)c5ccccc5)cc4[nH]3)c2C)CC1
182 to 183	Cc1cccnc1C(CO)COc1ccc(CC2SC(=O)NC2=O)cc1 (stereo not drawn)
137 to 139	Clc1ccc(-c2cc(C3CCN(Cc4ccccc4Cl)CC3)n[nH]2)cc1
121 to 122	CC(C)(C)OC(=O)Cc1nn(Cc2nc3cc(C(F)(F)F)ccc3s2)c(=O)c2cccnc12
231 to 232	CNC(=O)c1cc(-c2ccc(OC)cc2)nn(CC(=O)Nc2ccc(SC)cc2)c1=O
118 to 119	COc1ccc(-c2cccc(C(=O)O)c2)c2cc(Cc3cccc(C(F)(F)F)c3)oc12

Compound	melting point [°C]
O=S(=O)(Br)c1ccc(Br)s1	48 to 50
Cc1[nH]c2ccc(O)cc2c1C(=O)NC1CCN(CCc2ccccc2)CC1	232 to 236
N#CC1CN1C(=O)c1cc2ccccc2o1 (stereo not drawn)	92 to 94
COCC(=O)C1CCC2C3CCC4CC(O)CCC4(C)C3C(=O)CC12C (stereo not drawn)	144 to 146
O=C(Nc1ccc(Br)cc1)OC1CN2CCC1CC2 (stereo not drawn)	218 to 220
CNC(=O)ON=C1N=C(C)C(C)(C)S1	123 to 125
Cc1csc(C(=O)CCl)c1	76 to 77
